Patent US6358921B1, “Antimicrobial peptide compositions and method” (priority 1996, dated 2002)
Like-named read-outs stand apart in the source and are kept apart here. Where a SMILES comes first, the peptide text is derived from it. [ ]: non-standard residue; d: D form. Orn = NCCC[C@H](N)C(=O)O

Experiments:
P. aeruginosa H187 = type: cell-based, Pseudomonas aeruginosa; conditions: for Antibiotic activity (Table 11, ring analogs): P. aeruginosa H187, unit from Table 10; for Minimum Inhibitory Concentration (activity): H187
Method in brief: (§1)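 Broth microdilution in LB: overnight 37 °C cultures were diluted and added to serial peptide dilutions at a final 5×10^5 CFU/mL, then incubated overnight at 37 °C. MIC (μg/ml) is the lowest concentration inhibiting growth. Strains include E. faecalis ATCC 29212 and P. aeruginosa H188, the antibiotic-sensitive derivative of H187.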

P. aeruginosa H188 = type: cell-based, Pseudomonas aeruginosa; conditions: for Antibiotic activity (Table 11, ring analogs): P. aeruginosa H188, unit from Table 10; for Minimum Inhibitory Concentration (activity): H188
Method in brief: (§2)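 Antimicrobial activity is measured by a liquid-broth assay in LB at 37 °C overnight, starting from 5×10^5 CFU/mL. Values are minimal inhibitory concentrations, i.e. the lowest concentration that stops growth.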

E. coli UB1005 = type: cell-based, Escherichia coli; conditions: for Antibiotic activity (Table 11, ring analogs): E. coli UB1005, unit from Table 10; for Minimum Inhibitory Concentration (activity): UB1005
Method in brief: as §2

E. coli DC2 = type: cell-based, Escherichia coli; conditions: for Antibiotic activity (Table 11, ring analogs): E. coli DC2, unit from Table 10; for Minimum Inhibitory Concentration (activity): DC2
Method in brief: as §1

E. coli SC9251 = experiment: MIC, liquid-broth microtitre dilution; type: cell-based, Escherichia coli; conditions: unit from Table 10
From the text: (§3) The following bacterial strains were utilized: Escherichia coli UB1005 (wt) and its antibiotic supersusceptible derivative DC2 (Clark, 1984); Excherichia coli SC9251 and its polymixin B rasistant mutant pmrA SC9252 (Peterson, et al., 1987) Pseudomonas aeruginosa H187 (wt) (Angus, et al., 1987) and its antibiotic-sensitive derivative H188 (Zimmerman, W, Antimicrob. Agents Chemother. 18: 94-100, 1980); methicillin sensitive Staphylococcus aureus K147 (Kreiswirth, et al., 1983); Staphylococcus aureus SAP0017, a methicillin resistant clinical isolate from Dr. A. Chow (University of British Columia); Bacillus subtilis, an environmental wt lab strain. Enterococcus faecalis are ATCC 29212 cells and Staphylococcus epidermidis was a clinical isolate from Dr. D. Speert (University of British Columbia). Antifungal activity was tested using a clinical lab isolate of Candida albicans. Salmonella typhinurium C57 and C610 (Fields, P.I., et al., Science 243: 1059-1062 (1989) Corynebacterium xerosis was an environmental isolate (University of British Columbia).
(§4) It is now apparent that agar-based assays severely underestimate antifungal activity as well as activity against gram negative microorganisms (Kondejewski, et al., 1996). Consequently, in the studies reported herein, a liquid-broth method was used to measure the antibiotic properties of the peptides. […] Briefly, cells were grown overnight at 37° C. in LB and diluted in the same medium. Serial dilutions of antibiotics were added to the microtitre plates in a volume of 100 μL followed by 10 μL of bacteria to give a final inoculum of 5×10^5 CFU/mL. Plates were incubated at 37° C. overnight and MICs determined as the lowest antibiotic concentration that inhibited growth.

E. coli SC9252 = experiment: MIC, liquid-broth microtitre dilution; type: cell-based, Escherichia coli; conditions: unit from Table 10
From the text: as §3, §4

human erythrocytes = experiment: Hemolytic activity; type: cell-based
Protocol: Serial dilutions of the peptides in saline were prepared in round bottom microtitre plates using 100 μL volumes. Red blood cells were diluted with saline to 1/25 packed volume of cells and 50 μL added to each well. Plates were incubated with rocking at 37° C., and the concentration required for complete lysis determined visually after 4 h.

[1] = Displacement of dansyl-polymyxin from LPS; type: binding, P. aeruginosa
Method in brief: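 Peptides titrated into 3 μg/mL P. aeruginosa LPS with 2.5 μM dansyl-polymyxin (~90% site saturation) in 5 mM sodium HEPES, pH 7.0; fluorescence decrease recorded. I50 (50% probe displacement) taken from the x-intercept of a double-reciprocal plot of percent inhibition versus inhibitor concentration.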

[2] = tested on: gram negative microorganisms; type: cell-based
From the text: as §3, §4
(§5) The results from antimicrobial and hemolytic assays are combined to provide a “Therapeutic Index” (TI) for each peptide with respect to individual microorganisms. As reported herein, the TI is calculated as the hemolytic activity divided by the antimicrobial activity. The TI thus is a measure of specificity of the particular peptide for microbial membranes as opposed to human blood cell membranes. In the present studies, antimicrobial activities are reported as minimum inhibitory concentrations (MIC)—the lowest concentration of peptide (μg/ml) found to inhibit growth of the particular microbe. Hemolytic activity is reported as the concentration of peptide that effected complete lysis of blood cells after four hours. Thus, in the context of the present invention high TI values indicate microbial specificity and relative lack of toxicity.

[3] = tested on: gram positive microorganisms; type: cell-based; conditions: average activity calculated from Table II
From the text: as §3, §4, §5

yeast = experiment: Antibiotic activity, yeast; type: cell-based; conditions: average activity calculated from Table II
From the text: as §3, §4, §5

S. typhinurium C587 = type: cell-based, Salmonella typhinurium
Method in brief: as §2

S. typhinurium C610 = type: cell-based, Salmonella typhinurium
Method in brief: as §2

C. Albicans = type: cell-based, Candida albicans
Method in brief: as §2

S. aureus K147 = type: cell-based, Staphylococcus aureus
Method in brief: (§6)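 MIC read-out, μg/ml, lowest peptide concentration with no growth after overnight incubation at 37 °C in LB liquid broth. Inoculum 5×10^5 CFU/mL from overnight cultures. Therapeutic index = concentration giving complete blood-cell lysis at 4 h divided by MIC.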

S. aureus SAP0017 = type: cell-based, Staphylococcus aureus
Method in brief: as §6

S. epidermidis = type: cell-based, Staphylococcus epidermidis
Method in brief: as §2

B. subtilis = type: cell-based, Bacillus subtilis
Method in brief: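 Liquid-broth microdilution: overnight LB cultures diluted and added to serial peptide dilutions at final 5×10^5 CFU/mL, incubated overnight at 37 °C. MIC is the lowest concentration inhibiting growth; C. albicans a clinical isolate, S. epidermidis clinical, C. xerosis environmental.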

E. faecalis = type: cell-based, Enterococcus faecalis
Method in brief: as §2

C. xeroses = type: cell-based, Corynebacterium xerosis
Method in brief: as §2

[4] = read-out: LPS binding affinity: peptide concentration to displace 50% of dansyl-polymyxin B from LPS, Tables 1, 4, 7

SMILES | Antibiotic activity (Table 11, ring analogs) (P. aeruginosa H187) [μg/ml] | Antibiotic activity (Table 11, ring analogs) (P. aeruginosa H188) [μg/ml] | Antibiotic activity (Table 11, ring analogs) (E. coli UB1005) [μg/ml] | Antibiotic activity (Table 11, ring analogs) (E. coli DC2) [μg/ml] | Antibiotic activity (Table 11, ring analogs) (E. coli SC9251) [μg/ml] | Minimum Inhibitory Concentration (activity) (P. aeruginosa H187) [µg/mL] | Minimum Inhibitory Concentration (activity) (P. aeruginosa H188) [µg/mL] | Minimum Inhibitory Concentration (activity) (E. coli UB1005) [µg/mL] | Minimum Inhibitory Concentration (activity) (E. coli DC2) [µg/mL] | Minimum Inhibitory Concentration (activity) (S. typhinurium C587) [µg/mL] | Minimum Inhibitory Concentration (activity) (S. typhinurium C610) [µg/mL] | Hemolytic activity: peptide concentration for 100% lysis of human erythrocytes (human erythrocytes) [µg/mL] | IC50 [1, 4] [µM] | Minimum Inhibitory Concentration (activity) (S. aureus K147) [µg/mL] | Minimum Inhibitory Concentration (activity) (S. aureus SAP0017) [µg/mL] | Minimum Inhibitory Concentration (activity) (S. epidermidis) [µg/mL] | Minimum Inhibitory Concentration (activity) (B. subtilis) [µg/mL] | Minimum Inhibitory Concentration (activity) (E. faecalis) [µg/mL] | Minimum Inhibitory Concentration (activity) (C. xeroses) [µg/mL] | Minimum Inhibitory Concentration (activity) (C. Albicans) [µg/mL] | other results
CC(C)C[C@@H]1NC(=O)[C@H](CCCN)NC(=O)[C@H](C(C)C)NC(=O)[C@@H]2CCCN2C(=O)[C@@H](Cc2ccccc2)NC(=O)[C@H](CC(C)C)NC(=O)[C@H](CCCN)NC(=O)[C@H](C(C)C)NC(=O)[C@H](CCCN)NC(=O)[C@@H]2CCCN2C(=O)[C@@H](Cc2ccccc2)NC(=O)[C@H](CCCN)NC1=O [GS12FO, FPVOLOFPOVOL] (cyclo(L[Orn][dF]P[Orn]V[Orn]L[dF]PV[Orn])) | 50 | 5 | 22 | 5 | 6 |  |  |  |  |  |  |  |  |  |  |  |  |  |  |  | Antibiotic activity (Table 11, ring analogs) (E. coli SC9252): 9 μg/ml; Hemolytic activity (human erythrocytes): 160 µg/mL; IC50 ([1]; Table 10, read-out: LPS binding activity: peptide concentration to displace 50% of dansyl-polymyxin from LPS): 105 µM; Antibiotic activity, gram-negative ([2]; average activity calculated from Table II): 16 µg/mL; Antibiotic activity, gram-positive [3]: 120 µg/mL; Antibiotic activity, yeast (yeast): 16 µg/mL
CC(C)C[C@@H]1NC(=O)[C@H](CCCN)NC(=O)[C@H](C(C)C)NC(=O)[C@@H]2CCCN2C(=O)[C@@H](Cc2ccccc2)NC(=O)[C@H](CC(C)C)NC(=O)[C@H](CCCN)NC(=O)[C@H](C(C)C)NC(=O)[C@@H]2CCCN2C(=O)[C@@H](Cc2ccccc2)NC1=O [GS, cyclo(Val-Orn-Leu-D-Phe-Pro)2, reference compound] (cyclo(V[Orn]L[dF]PV[Orn]L[dF]P)) | 25 | 16 | 19 | 9 | 13 | 25 | 6.2 | 9 | 3.1 | 18 | 9 | 12.5 | 295 |  |  |  |  |  |  |  | Minimum Inhibitory Concentration (activity) (C. Albicans; C. Albicans): 6.2 µg/mL; Antibiotic activity (Table 11, ring analogs) (E. coli SC9252): 5 μg/ml; MIC against gram-negative organisms, particularly E. coli and P. aeruginosa [2]: 3 to 12.5 µg/mL
C[C@@H]1NC(=O)[C@H](CCCCN)NC(=O)[C@H](C)NC(=O)[C@@H]2CCCN2C(=O)[C@@H](Cc2ccc(O)cc2)NC(=O)[C@H](C)NC(=O)[C@@H](CCCCN)NC(=O)[C@H](C)NC(=O)[C@H](CCCCN)NC(=O)[C@H](C)NC(=O)[C@@H]2CCCN2C(=O)[C@@H](Cc2ccc(O)cc2)NC(=O)[C@H](C)NC(=O)[C@H](CCCCN)NC1=O [V3L3/A6] |  |  |  |  |  | >200 | 75 | >200 | >200 | >200 | >200 | >800 | 291 | >200 | >200 | >200 | >200 | >200 | 200 | 400 | 
CC(C)C[C@@H]1NC(=O)[C@H](CCCCN)NC(=O)[C@H](CC(C)C)NC(=O)[C@@H]2CCCN2C(=O)[C@@H](Cc2ccccc2)NC(=O)[C@H](CC(C)C)NC(=O)[C@@H](CCCCN)NC(=O)[C@H](CC(C)C)NC(=O)[C@H](CCCCN)NC(=O)[C@H](CC(C)C)NC(=O)[C@@H]2CCCN2C(=O)[C@@H](Cc2ccccc2)NC(=O)[C@H](CC(C)C)NC(=O)[C@H](CCCCN)NC1=O [Y2/F2 V3/L3] |  |  |  |  |  | 12.5 | 3.1 | 9 | 2 | 35 | 12.5 |  | 25 | 9 | 9 | 2 | 6.2 | 1.5 | 1 | 3.1 | Hemolytic activity: peptide concentration for 100% lysis of human erythrocytes (human erythrocytes; Tables 1, 4, 7): 12.5 µg/mL
CC(C)C[C@@H]1NC(=O)[C@H](CCCCN)NC(=O)[C@H](C(C)C)NC(=O)[C@@H]2CCCN2C(=O)[C@@H](Cc2ccccc2)NC(=O)[C@H](CC(C)C)NC(=O)[C@H](CCCCN)NC(=O)[C@H](C(C)C)NC(=O)[C@H](CCCCN)NC(=O)[C@H](CC(C)C)NC(=O)[C@@H]2CCCN2C(=O)[C@@H](Cc2ccccc2)NC(=O)[C@H](C(C)C)NC(=O)[C@@H](CCCCN)NC1=O [Y2/F2] |  |  |  |  |  | 17 | 3.1 | 6.2 | 1.5 | 9 | 3.1 | 40 | 59 | 12.5 | 9 | 3.1 | 12.5 | 6.2 | 1.5 | 3.1 | 
